Experimental data from US10464906B2, “Crystalline forms of a histone deacetylase inhibitor” (Acetylon Pharmaceuticals, Inc., priority 2015, dated 2019).
In brackets after ≈: the same amount, converted by molar mass. Entries after “also recorded” stand apart in the source; their conditions may differ. Where two headings read alike, the source gives them in different places.

Assays:
Assay type in all cases: physicochemical
[1] = Dynamic vapor sorption (DVS) with post-DVS XRPD; conditions: for Post DVS XRPD (crystalline form after DVS): XRPD of the post-DVS sample
Description: Samples were analyzed using an Aquadyne DVS-2 gravimetric water sorption analyzer. The relative humidity was adjusted between 2-95% and the weight of the sample was continuously monitored and recorded with respect to the relative humidity and time.
The material was subjected under Dynamic Vapor Sorption (DVS, FIG. 6).

[2] = Solid form stability test (up to 7 days) under high humidity, XRPD
Description: In one aspect, provided herein is 2-((2-chlorophenyl)(phenyl)amino)-N-(7-(hydroxyamino)-7-oxoheptyl)pyrimidine-5-carboxamide of Form I (referred to herein as “Form I”). Form I (of Compound (I)) was observed under a polarized microscope and its crystalline nature was determined by using X-ray powder diffraction (XRPD) and Pattern A was assigned to it for identification (See Example 3). The chemical structure of the material was confirmed by proton-nuclear magnetic resonance (^1H-NMR) and the thermal characterization of the material was carried out by differential scanning calorimetry (DSC) and thermal gravimetric analysis (TGA) (see Examples 2 and 3). […] The XRPD analysis of this form including peak identification is found in Example 11 (See FIG. 40).

[3] = Dynamic vapor sorption (DVS) with post-DVS XRPD; conditions: relative humidity between 0-95%
[4] = Stability of crystalline forms under dry (vacuum, 45° C.) and humid (RH >95%) conditions, XRPD; conditions: for XRPD pattern after drying at 45° C. (under vacuum): dried under vacuum at 45° C.; for Form change after exposing the dried sample to high humidity conditions (XRPD): after drying at 45° C. under vacuum, then high humidity (RH >95%)
Description: For dry conditions, the sample was dried under vacuum at 45° C. followed by XRPD analysis. Later the sample was subjected to high humidity conditions (RH >95%) followed by XRPD analysis.
The MeOH and DCM solvates of Compound (I) were dried on XRPD plates under vacuum at 45° C. and were analyzed by XRPD the following day.
Pattern E was dried at 45° C. under vacuum overnight and analyzed by XRPD. The following day, it was subjected to high humidity conditions (>95%) and later analyzed by XRPD the next day. […] FIG. 26 illustrates the XRPD comparison of dried and humid samples with Compound (I), Form I, Pattern A.

[5] = Solubility assessment of Form I, gravimetric, slurried 48 h in solvents/solvent mixtures; conditions: thermodynamic from solid
Description: The Solubility of Form I was measured gravimetrically in 15 different solvents and solvent mixtures at 15 and 45° C. About 75 mg of the compound was dispensed in 10 volumes (750 μL) of the solvent/solvent mixture and slurried for 48 h.
The vials were centrifuged. The supernatant was collected and left for slow evaporation under vacuum at 45° C. The solids obtained after evaporation were used to determine the solubility of Form I and analyzed by XRPD for any new forms.

[6] = Form change on heating or on storage at room temperature, XRPD
[7] = exposed to high humidity conditions

In the case of `O=C(CCCCCCNC(=O)c1cnc(N(c2ccccc2)c2ccccc2Cl)nc1)NO` [Form I, 2-((2-chlorophenyl)(phenyl)amino)-N-(7-(hydroxyamino)-7-oxoheptyl)pyrimidine-5-carboxamide], the Hygroscopicity [1] is reported as “low hygroscopicity”, the “Post DVS XRPD (crystalline form after DVS)” value (“Post DVS XRPD” below) [1] is reported as “no change in the crystalline form; also recorded: Pattern A,” and the “Solid form stability under high humidity (XRPD)” value [2] is reported as “stability of Form I up to seven days; also recorded: stable under high humidity up to a week”. For the same molecule, the “Moisture uptake (DVS)” value [3] was “less than 0.2%”, the “XRPD pattern after drying at 45° C. (under vacuum)” value (shortened to “XRPD pattern after drying”) [4] was “Pattern A,” and the solubility at 48 h ([5]; aqueous with cosolvent or surfactant or cyclodextrin, EtOH:H2O (1:1), temperature not stated, read-out: Solubility (moderately soluble)) was 10 to 55 mg/mL (≈ 21.4 to 118 mM). It also gave a solubility at 48 h ([5]; aqueous with cosolvent or surfactant or cyclodextrin, acetone:H2O (1:1), temperature not stated, read-out: Solubility (moderately soluble)) of 10 to 55 mg/mL (≈ 21.4 to 118 mM), a solubility at 48 h ([5]; organic solvent or mixture, Acetone, 15° C., read-out: Solubility) of 2 mg/mL (≈ 4.27 mM) and a solubility at 48 h ([5]; organic solvent or mixture, Acetone, 45° C., read-out: Solubility) of 11 mg/mL (≈ 23.5 mM). The solubility at 48 h ([5]; organic solvent or mixture, Acetone:H2O (95:5), 15° C., read-out: Solubility) was 21 mg/mL (≈ 44.9 mM), the solubility at 48 h ([5]; organic solvent or mixture, Acetone:H2O (95:5), 45° C., read-out: Solubility) was 48 mg/mL (≈ 103 mM) and the solubility at 48 h ([5]; organic solvent or mixture, Acetonitrile (ACN), 15° C., read-out: Solubility) was less than 1 mg/mL. It also gave a solubility at 48 h ([5]; organic solvent or mixture, Acetonitrile (ACN), 45° C., read-out: Solubility) of 1 mg/mL (≈ 2.14 mM), a solubility at 48 h ([5]; organic solvent or mixture, DCM, temperature not stated, read-out: Solubility (less soluble)) of less than 1 mg/mL and a solubility at 48 h ([5]; organic solvent or mixture, DMA, temperature not stated, read-out: Solubility (freely soluble)) greater than 100 mg/mL. It also gave a solubility at 48 h ([5]; organic solvent or mixture, Dimethylacetamide (DMA), 15° C., read-out: Solubility) greater than 100 mg/mL, a solubility at 48 h ([5]; organic solvent or mixture, Dimethylacetamide (DMA), 45° C., read-out: Solubility) greater than 100 mg/mL and a solubility at 48 h ([5]; organic solvent or mixture, EtOAc, temperature not stated, read-out: Solubility (less soluble)) of less than 1 mg/mL. It also gave a solubility at 48 h ([5]; organic solvent or mixture, EtOH, temperature not stated, read-out: Solubility (moderately soluble)) of 10 to 55 mg/mL (≈ 21.4 to 118 mM), a solubility at 48 h ([5]; organic solvent or mixture, EtOH:H2O (95:5), 15° C., read-out: Solubility) of 18 mg/mL (≈ 38.5 mM) and a solubility at 48 h ([5]; organic solvent or mixture, EtOH:H2O (95:5), 45° C., read-out: Solubility) of 53 mg/mL (≈ 113 mM). The solubility at 48 h ([5]; organic solvent or mixture, Ethanol (EtOH), 15° C., read-out: Solubility) was 11 mg/mL (≈ 23.5 mM), the solubility at 48 h ([5]; organic solvent or mixture, Ethanol (EtOH), 45° C., read-out: Solubility) was 39 mg/mL (≈ 83.3 mM) and the solubility at 48 h ([5]; organic solvent or mixture, Ethyl acetate (EtOAc), 15° C., read-out: Solubility) was less than 1 mg/mL. It also gave a solubility at 48 h ([5]; organic solvent or mixture, Ethyl acetate (EtOAc), 45° C., read-out: Solubility) of 1 mg/mL (≈ 2.14 mM), a solubility at 48 h ([5]; organic solvent or mixture, Heptane (HEP), 15° C., read-out: Solubility) of less than 1 mg/mL and a solubility at 48 h ([5]; organic solvent or mixture, Heptane (HEP), 45° C., read-out: Solubility) of less than 1 mg/mL. The solubility at 48 h ([5]; organic solvent or mixture, IPA, temperature not stated, read-out: Solubility (slightly soluble)) was roughly 2 mg/mL (≈ 4.27 mM), the solubility at 48 h ([5]; organic solvent or mixture, Isopropanol (IPA), 15° C., read-out: Solubility) was 1 mg/mL (≈ 2.14 mM) and the solubility at 48 h ([5]; organic solvent or mixture, Isopropanol (IPA), 45° C., read-out: Solubility) was 12 mg/mL (≈ 25.6 mM). For the same molecule, the solubility at 48 h ([5]; organic solvent or mixture, MeOH, temperature not stated, read-out: Solubility (freely soluble)) was greater than 100 mg/mL, the solubility at 48 h ([5]; organic solvent or mixture, Methanol (MeOH), 15° C., read-out: Solubility) was 11 mg/mL (≈ 23.5 mM) and the solubility at 48 h ([5]; organic solvent or mixture, Methanol (MeOH), 45° C., read-out: Solubility) was greater than 100 mg/mL. For the same molecule, the solubility at 48 h ([5]; organic solvent or mixture, TBME, temperature not stated, read-out: Solubility (less soluble)) was less than 1 mg/mL, the solubility at 48 h ([5]; organic solvent or mixture, TFE, temperature not stated, read-out: Solubility (freely soluble)) was greater than 100 mg/mL and the solubility at 48 h ([5]; organic solvent or mixture, THF, temperature not stated, read-out: Solubility (moderately soluble)) was 10 to 55 mg/mL (≈ 21.4 to 118 mM). For the same molecule, the solubility at 48 h ([5]; organic solvent or mixture, Tert-butyl methyl ether (TBME), 15° C., read-out: Solubility) was less than 1 mg/mL, the solubility at 48 h ([5]; organic solvent or mixture, Tert-butyl methyl ether (TBME), 45° C., read-out: Solubility) was 2 mg/mL (≈ 4.27 mM) and the solubility at 48 h ([5]; organic solvent or mixture, Tetrahydrofuran (THF), 15° C., read-out: Solubility) was 13 mg/mL (≈ 27.8 mM). It also gave a solubility at 48 h ([5]; organic solvent or mixture, Tetrahydrofuran (THF), 45° C., read-out: Solubility) of 50 mg/mL (≈ 107 mM), a solubility at 48 h ([5]; organic solvent or mixture, acetone, temperature not stated, read-out: Solubility (slightly soluble)) of roughly 2 mg/mL (≈ 4.27 mM) and a solubility at 48 h ([5]; organic solvent or mixture, acetonitrile, temperature not stated, read-out: Solubility (less soluble)) of less than 1 mg/mL. The solubility at 48 h ([5]; organic solvent or mixture, heptane, temperature not stated, read-out: Solubility (less soluble)) was less than 1 mg/mL, the solubility at 48 h ([5]; Water (H2O), 15° C., read-out: Solubility) was less than 1 mg/mL and the solubility at 48 h ([5]; Water (H2O), 45° C., read-out: Solubility) was less than 1 mg/mL. It also gave a solubility at 48 h ([5]; water, temperature not stated, read-out: Solubility (less soluble)) of less than 1 mg/mL, a solubility at 48 h ([5]; trifluoroethanol (TFE), organic solvent or mixture, Trifluoro Ethanol (TFE), 15° C., read-out: Solubility) greater than 100 mg/mL and a solubility at 48 h ([5]; trifluoroethanol (TFE), organic solvent or mixture, Trifluoro Ethanol (TFE), 45° C., read-out: Solubility) greater than 100 mg/mL.
With `O=C(CCCCCCNC(=O)c1cnc(N(c2ccccc2)c2ccccc2Cl)nc1)NO` [Form II, 2-((2-chlorophenyl)(phenyl)amino)-N-(7-(hydroxyamino)-7-oxoheptyl)pyrimidine-5-carboxamide] the “Post DVS XRPD” value [1] was “Pattern D,”, the “Post DVS XRPD” value ([1]; listed as Pattern B) was “Pattern D” and the “Weight change (DVS)” value [1, 7] was less than 1%. The “XRPD pattern after drying” value [4] was “Pattern D,”, the “XRPD pattern after drying” value ([4]; listed as Pattern B) was “Pattern D” and the “XRPD pattern after heating” value ([6]; 130° C. for 30 minutes) was “Pattern A”.
In the case of `O=C(CCCCCCNC(=O)c1cnc(N(c2ccccc2)c2ccccc2Cl)nc1)NO` [Form III, 2-((2-chlorophenyl)(phenyl)amino)-N-(7-(hydroxyamino)-7-oxoheptyl)pyrimidine-5-carboxamide], the “Post DVS XRPD” value [1] is reported as “Pattern D,”, the “Post DVS XRPD” value ([1]; listed as Pattern C) is reported as “Pattern D” and the “Weight change (DVS)” value [1, 7] is reported as “around 1.5%”. For the same molecule, the “XRPD pattern after drying” value [4] was “Pattern D,” and the “XRPD pattern after drying” value ([4]; listed as Pattern C) was “Pattern D”.
For `O=C(CCCCCCNC(=O)c1cnc(N(c2ccccc2)c2ccccc2Cl)nc1)NO` [Form IX, 2-((2-chlorophenyl)(phenyl)amino)-N-(7-(hydroxyamino)-7-oxoheptyl)pyrimidine-5-carboxamide], the “Post DVS XRPD” value [1] was “Pattern D,”, the “Post DVS XRPD” value ([1]; listed as Pattern I) was “Pattern D” and the “XRPD pattern after drying” value [4] was “Pattern D (Form IV)”. For the same molecule, the “XRPD pattern after drying” value ([4]; listed as Pattern I) was “Pattern D”.
With `O=C(CCCCCCNC(=O)c1cnc(N(c2ccccc2)c2ccccc2Cl)nc1)NO` [Form V, 2-((2-chlorophenyl)(phenyl)amino)-N-(7-(hydroxyamino)-7-oxoheptyl)pyrimidine-5-carboxamide] the “Post DVS XRPD” value [1] was “Pattern F, Form VI”, the “Post DVS XRPD” value ([1]; listed as Pattern E) was “Pattern F” and the “Moisture uptake (DVS)” value [1, 7] was less than 0.15%. For the same molecule, the “Form change after exposing the dried sample to high humidity conditions (XRPD)” value [4] was “no further form change”, the “XRPD pattern after drying” value [4] was “Form VI, Pattern F” and the “XRPD pattern after drying” value ([4]; listed as Pattern E) was “Pattern F (Form VI)”.
With `O=C(CCCCCCNC(=O)c1cnc(N(c2ccccc2)c2ccccc2Cl)nc1)NO` [Form VII, 2-((2-chlorophenyl)(phenyl)amino)-N-(7-(hydroxyamino)-7-oxoheptyl)pyrimidine-5-carboxamide] the “Post DVS XRPD” value [1] was “Pattern H,”, the “Post DVS XRPD” value ([1]; listed as Pattern G) was “Pattern H” and the “Form change after exposing the dried sample to high humidity conditions (XRPD)” value [4] was “no further form change”. The “XRPD pattern after drying” value [4] was “Form VIII (Pattern H)” and the “XRPD pattern after drying” value ([4]; listed as Pattern G) was “Pattern H”.
With `O=C(CCCCCCNC(=O)c1cnc(N(c2ccccc2)c2ccccc2Cl)nc1)NO` [Pattern J] the “XRPD pattern after drying” value [4] was “Pattern A” and the “XRPD pattern after storage” value ([6]; room temperature, reanalyzed after three days) was “Pattern A”.
